Experimental data as given in patent publication US12091411B2, “IRAK degraders and uses thereof” (Kymera Therapeutics, Inc., priority 2022, dated 2024).
Where two headings read alike, the source gives them in different places.

Molecular target: T1, IRAK4 (Homo sapiens, UniProt Q9NWZ3)
T1 construct: Degradation of IRAK4 in OCI-LY10 was quantitatively measured using Meso Scale Discovery technology; endogenous in cells; host or cells: OCI-LY10
T1 sequence (Q9NWZ3 1-460): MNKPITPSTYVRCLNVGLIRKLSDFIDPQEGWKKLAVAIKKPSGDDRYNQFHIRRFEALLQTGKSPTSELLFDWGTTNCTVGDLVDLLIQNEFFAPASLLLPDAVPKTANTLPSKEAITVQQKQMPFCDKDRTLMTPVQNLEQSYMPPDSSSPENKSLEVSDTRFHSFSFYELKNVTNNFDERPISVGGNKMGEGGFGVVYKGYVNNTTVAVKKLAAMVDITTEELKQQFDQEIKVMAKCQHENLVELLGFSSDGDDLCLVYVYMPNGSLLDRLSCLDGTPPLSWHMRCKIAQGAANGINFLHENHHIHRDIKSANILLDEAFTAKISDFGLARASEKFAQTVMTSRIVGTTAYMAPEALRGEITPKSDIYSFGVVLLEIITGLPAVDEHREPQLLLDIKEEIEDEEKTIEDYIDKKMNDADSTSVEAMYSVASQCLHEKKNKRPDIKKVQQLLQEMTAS
Test: IRAK4 MSD Degradation in OCI-LY10
Format: cell-based
Conditions: OCI-LY10 cells, MSD
Procedure: Degradation of IRAK4 in OCI-LY10 was quantitatively measured using Meso Scale Discovery technology. […] Compounds were then added to the assay plates with a final top concentration of 1 to 10 μM in a 1:3 dilution series with total of 8 doses. The assay plates were then incubated for 4 to 24 hours at 37° C. under 5% CO2. […] To prepare MSD assay plates (Meso Scale Discovery Catalog number L15XA-3), the plates were coated with 2 μg/mL capture antibody (mouse Anti-IRAK4 antibody [2H9], ab119942) in PBS, at 40 μL/well. […] Cell lysates were then added to MSD assay plates and the plates were incubated at room temperature for 1 hour. The plates were then washed 3 times with 150 μL/well TBST buffer and 25 μL/well primary detection antibody (rabbit Anti-IRAK4 antibody [Y279], from Abcam. Catalog number ab32511, 1 μg/mL). The assay plates were then incubated at room temperature for 1 hour, washed 3 times with 150 μL/well TBST buffer and 25 μL/well secondary detection antibody, SULFO-TAG anti-rabbit antibody were added (anti-rabbit antibody from Meso Scale Discovery, Catalog number R32AB-1, 1 μg/mL). The assay plates were then incubated at room temperature for 1 hour, washed 3 times with 150 μL/well TBST buffer, and 150 μL/well MSD reading buffer (Meso Scale Discovery catalog number R92TC-2) was added. The plates were then analyzed by a MSD reader (Meso Scale Discovery, Model Quick Plex SQ 120). The data was then analyzed by software Prism 7.0 from GraphPad and the dose-depended IRAK4 degradation were fit using a three-parameter logistic equation to calculate DC50.
The letter codes for IRAK4 DC50 include: A (<0.01 μM); B (0.01 to <0.1 μM); C (0.1 to 0.2 μM); and D (>0.2 μM or not tested).

[1] = 4 hrs incubation, read-out: IRAK4 degradation in OCI-LY10 at 4 hrs: DC50
[2] = 24 hrs incubation, read-out: IRAK4 degradation in OCI-LY10 at 24 hrs: DC50

Row | DC50 [1] [µM] | DC50 [2] [µM] | Compound
1 | > 0.2 | > 0.2 | Cn1c(=O)n(C2CCC(=O)NC2=O)c2cccc(C#CCC3CCN(C[C@H]4CC[C@H](n5cc(NC(=O)c6cnn7ccc(N8C[C@H]9CC8CO9)nc67)c(C(F)F)n5)CC4)CC3)c21 (stereo partly drawn) [I-15]
2 | < 0.01 | > 0.2 | Cn1c(=O)n(C2CCC(=O)NC2=O)c2cccc(C#CCCOC3CCN(C[C@H]4CC[C@H](n5cc(NC(=O)c6cnn7ccc(N8C[C@H]9C[C@@H]8CO9)nc67)c(C(F)F)n5)CC4)CC3)c21 (stereo partly drawn) [I-16]
3 | 0.01 to 0.1 | > 0.2 | Cn1c(=O)n(C2CCC(=O)NC2=O)c2cccc(C#CC3CCCN(C[C@H]4CC[C@H](n5cc(NC(=O)c6cnn7ccc(N8C[C@H]9C[C@@H]8CO9)nc67)c(C(F)F)n5)CC4)C3)c21 (stereo partly drawn) [I-17]
4 | 0.01 to 0.1 | > 0.2 | Cn1c(=O)n(C2CCC(=O)NC2=O)c2cccc(C#CCOC3CCN(C[C@H]4CC[C@H](n5cc(NC(=O)c6cnn7ccc(N8C[C@H]9C[C@@H]8CO9)nc67)c(C(F)F)n5)CC4)CC3(F)F)c21 (stereo partly drawn) [I-18]
5 | 0.1 to 0.2 | > 0.2 | Cn1c(=O)n(C2CCC(=O)NC2=O)c2cccc(C#CCOC3CC4CC3CN4C[C@H]3CC[C@H](n4cc(NC(=O)c5cnn6ccc(N7C[C@H]8C[C@@H]7CO8)nc56)c(C(F)F)n4)CC3)c21 (stereo partly drawn) [I-19]
6 | < 0.01 | > 0.2 | Cn1c(=O)n(C2CCC(=O)NC2=O)c2cccc(C#CCOC3CN(C[C@H]4CC[C@H](n5cc(NC(=O)c6cnn7ccc(N8C[C@H]9C[C@@H]8CO9)nc67)c(C(F)F)n5)CC4)C3)c21 (stereo partly drawn) [I-20]
7 | < 0.01 | > 0.2 | Cn1c(=O)n(C2CCC(=O)NC2=O)c2cccc(C#CCO[C@H]3CCN(C[C@H]4CC[C@H](n5cc(NC(=O)c6cnn7ccc(N8C[C@H]9C[C@@H]8CO9)nc67)c(C(F)F)n5)CC4)C3)c21 (stereo partly drawn) [I-21]
8 | 0.01 to 0.1 | > 0.2 | Cn1c(=O)n(C2CCC(=O)NC2=O)c2cccc(C#CCO[C@@H]3CCN(C[C@H]4CC[C@H](n5cc(NC(=O)c6cnn7ccc(N8C[C@H]9C[C@@H]8CO9)nc67)c(C(F)F)n5)CC4)C[C@@H]3F)c21 (stereo partly drawn) [I-22]
9 | 0.01 to 0.1 | > 0.2 | Cn1c(=O)n(C2CCC(=O)NC2=O)c2cccc(C#CCO[C@H]3CCN(C[C@H]4CC[C@H](n5cc(NC(=O)c6cnn7ccc(N8C[C@H]9C[C@@H]8CO9)nc67)c(C(F)F)n5)CC4)C[C@@H]3F)c21 (stereo partly drawn) [I-23]
10 | 0.01 to 0.1 | > 0.2 | Cn1c(=O)n(C2CCC(=O)NC2=O)c2cccc(C#CCO[C@@H]3CCN(C[C@H]4CC[C@H](n5cc(NC(=O)c6cnn7ccc(N8C[C@H]9C[C@@H]8CO9)nc67)c(C(F)F)n5)CC4)C3)c21 (stereo partly drawn) [I-24]
11 | 0.01 to 0.1 | < 0.01 | C[C@H]1CN(C[C@H]2CC[C@H](n3cc(NC(=O)c4cnn5ccc(N6C[C@H]7C[C@@H]6CO7)nc45)c(C(F)F)n3)CC2)CC[C@@H]1OCC#Cc1cccc2c1n(C)c(=O)n2C1CCC(=O)NC1=O (stereo partly drawn) [I-25]
12 | 0.01 to 0.1 | > 0.2 | C[C@H]1CN(C[C@H]2CC[C@H](n3cc(NC(=O)c4cnn5ccc(N6C[C@H]7C[C@@H]6CO7)nc45)c(C(F)F)n3)CC2)CC[C@H]1OCC#Cc1cccc2c1n(C)c(=O)n2C1CCC(=O)NC1=O (stereo partly drawn) [I-26]
13 | 0.01 to 0.1 | > 0.2 | Cn1c(=O)n(C2CCC(=O)NC2=O)c2cccc(C#CC3CN(C[C@H]4CC[C@H](n5cc(NC(=O)c6cnn7ccc(N8C[C@H]9C[C@@H]8CO9)nc67)c(C(F)F)n5)CC4)CCO3)c21 (stereo partly drawn) [I-27]
14 | < 0.01 | > 0.2 | Cn1c(=O)n(C2CCC(=O)NC2=O)c2cccc(C#CCOC3CCN(C[C@H]4C[C@H](n5cc(NC(=O)c6cnn7ccc(N8C[C@H]9C[C@@H]8CO9)nc67)c(C(F)F)n5)C4)CC3)c21 (stereo partly drawn) [I-28]
15 | < 0.01 | > 0.2 | C[C@H]1C[C@@H](OCC#Cc2cccc3c2n(C)c(=O)n3C2CCC(=O)NC2=O)CCN1C[C@H]1CC[C@H](n2cc(NC(=O)c3cnn4ccc(N5C[C@H]6C[C@@H]5CO6)nc34)c(C(F)F)n2)CC1 (stereo partly drawn) [I-29]
16 | 0.01 to 0.1 | > 0.2 | Cn1c(=O)n(C2CCC(=O)NC2=O)c2cccc(C#CCOC3C4CC3CN(C[C@H]3CC[C@H](n5cc(NC(=O)c6cnn7ccc(N8C[C@H]9C[C@@H]8CO9)nc67)c(C(F)F)n5)CC3)C4)c21 (stereo partly drawn) [I-30]
17 | < 0.01 | > 0.2 | Cn1c(=O)n(C2CCC(=O)NC2=O)c2cccc(C#CCN3CCN(C[C@H]4CC[C@H](n5cc(NC(=O)c6cnn7ccc(N8C[C@H]9C[C@@H]8CO9)nc67)c(C(F)F)n5)CC4)CC3)c21 (stereo partly drawn) [I-31, N-[3-(difluoromethyl)-1-[4-[[4-[3-[1-(2,6-dioxo-3-piperidyl)-3-methyl-2-oxo-benzimidazol-4-yl]prop-2-ynyl]piperazin-1-yl]methyl]cyclohexyl]pyrazol-4-yl]-5-[(1R,4R)-2-oxa-5-azabicyclo[2.2.1]heptan-5-yl]pyrazolo[1,5-a]pyrimidine-3-carboxamide]
18 | < 0.01 | > 0.2 | C[C@@H]1C[C@@H](OCC#Cc2cccc3c2n(C)c(=O)n3C2CCC(=O)NC2=O)CCN1C[C@H]1CC[C@H](n2cc(NC(=O)c3cnn4ccc(N5C[C@H]6C[C@@H]5CO6)nc34)c(C(F)F)n2)CC1 (stereo partly drawn) [I-33]
19 | 0.01 to 0.1 | > 0.2 | Cn1c(=O)n(C2CCC(=O)NC2=O)c2cccc(C#CCO[C@@H]3CCN(C[C@H]4CC[C@H](n5cc(NC(=O)c6cnn7ccc(N8C[C@H]9C[C@@H]8CO9)nc67)c(C(F)F)n5)CC4)C[C@@H]3F)c21 (stereo partly drawn) [I-35]
20 | 0.01 to 0.1 | > 0.2 | Cn1c(=O)n(C2CCC(=O)NC2=O)c2cccc(C#CCO[C@H]3CCN(C[C@H]4CC[C@H](n5cc(NC(=O)c6cnn7ccc(N8C[C@H]9C[C@@H]8CO9)nc67)c(C(F)F)n5)CC4)C[C@H]3F)c21 (stereo partly drawn) [I-36]
21 | < 0.01 | < 0.01 | C[C@H]1CN(C[C@H]2CC[C@H](n3cc(NC(=O)c4cnn5ccc(N6C[C@H]7C[C@@H]6CO7)nc45)c(C(F)F)n3)CC2)CC[C@@H]1OCC#Cc1cccc2c1n(C)c(=O)n2C1CCC(=O)NC1=O (stereo partly drawn) [I-37]
22 | < 0.01 | > 0.2 | COc1ccc2c(c1C#CCN1CCN(C[C@H]3CC[C@H](n4cc(NC(=O)c5cnn6ccc(N7C[C@H]8C[C@@H]7CO8)nc56)c(C(F)F)n4)CC3)CC1)n(C)c(=O)n2C1CCC(=O)NC1=O (stereo partly drawn) [I-39]
23 | < 0.01 | > 0.2 | Cn1c(=O)n(C2CCC(=O)NC2=O)c2cccc(C#CC3CCN(C[C@H]4CC[C@H](n5cc(NC(=O)c6cnn7ccc(N8C[C@H]9C[C@@H]8CO9)nc67)c(C(F)F)n5)CC4)CC3)c21 (stereo partly drawn) [I-40]
24 | < 0.01 | > 0.2 | O=C1CCN(c2cncc3c(C#CCO[C@@H]4CCN(C[C@H]5CC[C@H](n6cc(NC(=O)c7cnn8ccc(N9C[C@H]%10C[C@@H]9CO%10)nc78)c(C(F)F)n6)CC5)C[C@@H]4F)cccc23)C(=O)N1 [I-41]
25 | 0.01 to 0.1 | > 0.2 | C[C@@H]1CN(C[C@H]2CC[C@H](n3cc(NC(=O)c4cnn5ccc(N6C[C@H]7C[C@@H]6CO7)nc45)c(C(F)F)n3)CC2)CCN1CC#Cc1cccc2c1n(C)c(=O)n2C1CCC(=O)NC1=O (stereo partly drawn) [I-42]
26 | > 0.2 | > 0.2 | CN1C(=O)CCC(n2c(=O)n(C)c3c(C#CCN4CCN(C[C@H]5CC[C@H](n6cc(NC(=O)c7cnn8ccc(N9C[C@H]%10C[C@@H]9CO%10)nc78)c(C(F)F)n6)CC5)CC4)cccc32)C1=O (stereo partly drawn) [I-43]
27 | 0.01 to 0.1 | > 0.2 | Cn1c(=O)n(C2CCC(=O)NC2=O)c2cccc(C#CCN3CCN(C[C@H]4CC[C@H](n5cc(NC(=O)c6cnn7ccc(N8C[C@H]9OC[C@@H]8O9)nc67)c(C(F)F)n5)CC4)CC3)c21 (stereo partly drawn) [I-44]
28 | 0.01 to 0.1 | > 0.2 | Cn1c(=O)n(C2CCC(=O)NC2=O)c2cccc(C#CCN3C[C@H]4C[C@@H]3CN4C[C@H]3CC[C@H](n4cc(NC(=O)c5cnn6ccc(N7C[C@H]8C[C@@H]7CO8)nc56)c(C(F)F)n4)CC3)c21 (stereo partly drawn) [I-45]
29 | < 0.01 | > 0.2 | O=C1CCN(c2cncc3c(C#CCO[C@H]4CCN(C[C@H]5CC[C@H](n6cc(NC(=O)c7cnn8ccc(N9C[C@H]%10C[C@@H]9CO%10)nc78)c(C(F)F)n6)CC5)C[C@H]4F)cccc23)C(=O)N1 [I-46]
30 | > 0.2 | > 0.2 | C[C@H]1CN(C[C@H]2CC[C@H](n3cc(NC(=O)c4cnn5ccc(N6C[C@H]7C[C@@H]6CO7)nc45)c(C(F)F)n3)CC2)CC[C@@H]1OCC#Cc1cccc2c1n(C)c(=O)n2C1CCC(=O)N(C)C1=O (stereo partly drawn) [I-47]
